Measured values as given in ChEMBL document CHEMBL1629591, “Codetection of blaOXA-23-like gene (blaOXA-133) and blaOXA-58 in Acinetobacter radioresistens: report from the SENTRY antimicrobial surveillance program” (2009).
In brackets after ≈: the same amount, converted by molar mass.

What was measured:
Type in all cases: functional
[1] = test system: Acinetobacter radioresistens; assay: Antimicrobial activity against Acinetobacter radioresistens 251-39C expressing beta-lactamase OXA-133 by CLSI method in presence of beta-lactamase inhibitor clavulanate
[2] = test system: Acinetobacter radioresistens; assay: Antimicrobial activity against plasmid encoded beta-lactamase OXA-58 deficient Acinetobacter radioresistens by CLSI method in presence of beta-lactamase inhibitor clavulanate
[3] = test system: Acinetobacter radioresistens; assay: Antimicrobial activity against plasmid encoded beta-lactamase OXA-58 deficient Acinetobacter radioresistens by CLSI method
[4] = test system: Acinetobacter radioresistens; assay: Antimicrobial activity against Acinetobacter radioresistens 251-39C expressing beta-lactamase OXA-133 by CLSI method
[5] = test system: Acinetobacter radioresistens; assay: Antimicrobial activity against Acinetobacter radioresistens 251-39C expressing beta-lactamase OXA-133 by CLSI method in presence of beta-lactamase inhibitor Tazobactam
[6] = test system: Acinetobacter radioresistens; assay: Antimicrobial activity against plasmid encoded beta-lactamase OXA-58 deficient Acinetobacter radioresistens by CLSI method in presence of beta-lactamase inhibitor Tazobactam
[7] = test system: Acinetobacter radioresistens; assay: Antimicrobial activity against plasmid encoded beta-lactamase OXA-58 deficient Acinetobacter radioresistens by CLSI method in presence of beta-lactamase inhibitor Sulbactam
[8] = test system: Acinetobacter radioresistens; assay: Antimicrobial activity against Acinetobacter radioresistens 251-39C expressing beta-lactamase OXA-133 by CLSI method in presence of beta-lactamase inhibitor Sulbactam

MIC [3] | MIC [4] | Molecule | also measured
– | – | CC1(C)S[C@@H]2[C@H](NC(=O)[C@H](N)c3ccc(O)cc3)C(=O)N2[C@H]1C(=O)O [AMOXICILLIN] | MIC [1]: 32 µg/mL; MIC [2]: 2 µg/mL
2 µg/mL (≈ 4.28 µM) | 2 µg/mL (≈ 4.28 µM) | NC[C@H]1O[C@H](O[C@H]2[C@H](O)[C@@H](O[C@H]3O[C@H](CO)[C@@H](O)[C@H](N)[C@H]3O)[C@H](N)C[C@@H]2N)[C@H](N)C[C@@H]1O [TOBRAMYCIN] | –
– | – | CCN1CCN(C(=O)N[C@@H](C(=O)N[C@@H]2C(=O)N3[C@@H]2SC(C)(C)[C@@H]3C(=O)O)c2ccccc2)C(=O)C1=O [PIPERACILLIN] | MIC [5]: 64 µg/mL; MIC [6]: 1 µg/mL
2 µg/mL (≈ 3.61 µM) | 4 µg/mL (≈ 7.21 µM) | CO/N=C(\C(=O)N[C@@H]1C(=O)N2C(C(=O)O)=C(CSc3nc(=O)c(O)nn3C)CS[C@H]12)c1csc(N)n1 [CEFTRIAXONE] | –
≤ 2 µg/mL | ≤ 2 µg/mL | CN(C)[C@@H]1C(O)=C(C(N)=O)C(=O)[C@@]2(O)C(O)=C3C(=O)c4c(O)cccc4[C@@](C)(O)[C@H]3C[C@@H]12 [TETRACYCLINE] | –
– | – | CC1(C)S[C@@H]2[C@H](NC(=O)[C@H](N)c3ccccc3)C(=O)N2[C@H]1C(=O)O [AMPICILLIN] | MIC [7]: 1 µg/mL; MIC [8]: 1 µg/mL
0.25 µg/mL (≈ 0.835 µM) | 8 µg/mL (≈ 26.7 µM) | C[C@@H](O)[C@H]1C(=O)N2C(C(=O)O)=C(SCCNC=N)C[C@H]12 [IMIPENEM ANHYDROUS] | –
– | – | CC1(C)S[C@@H]2[C@H](NC(=O)[C@H](C(=O)O)c3ccsc3)C(=O)N2[C@H]1C(=O)O [TICARCILLIN] | MIC [1]: > 256 µg/mL; MIC [2]: 4 µg/mL
1 µg/mL (≈ 2.1 µM) | 4 µg/mL (≈ 8.41 µM) | C[C@@H](O)[C@H]1C(=O)N2C(C(=O)O)=C(S[C@@H]3CN[C@H](C(=O)Nc4cccc(C(=O)O)c4)C3)[C@H](C)[C@H]12 | –
0.25 µg/mL (≈ 0.652 µM) | 1 µg/mL (≈ 2.61 µM) | C[C@@H](O)[C@H]1C(=O)N2C(C(=O)O)=C(S[C@@H]3CN[C@H](C(=O)N(C)C)C3)[C@H](C)[C@H]12 [MEROPENEM] | –
< 0.5 µg/mL | < 0.5 µg/mL | POLYMYXIN B | –
0.5 µg/mL (≈ 0.854 µM) | 0.5 µg/mL (≈ 0.854 µM) | NCC[C@H](O)C(=O)N[C@@H]1C[C@H](N)[C@@H](O[C@H]2O[C@H](CN)[C@@H](O)[C@H](O)[C@H]2O)[C@H](O)[C@H]1O[C@H]1O[C@H](CO)[C@@H](O)[C@H](N)[C@H]1O [AMIKACIN] | –
8 µg/mL (≈ 18.7 µM) | 8 µg/mL (≈ 18.7 µM) | CO[C@@]1(NC(=O)Cc2cccs2)C(=O)N2C(C(=O)O)=C(COC(N)=O)CS[C@@H]21 [CEFOXITIN] | –

Molecule | MIC [3] | MIC [4] | also measured
CC(C)(O/N=C(\C(=O)N[C@@H]1C(=O)N2C(C(=O)[O-])=C(C[n+]3ccccc3)CS[C@H]12)c1csc(N)n1)C(=O)O [CEFTAZIDIME] | 0.5 µg/mL (≈ 0.915 µM) | 0.5 µg/mL (≈ 0.915 µM) | –
